# Structures can show the parent of a compound that is named as a salt.
# Key:
# [1] = tested on: aortic VCAM-1; experiment: Expression of aortic VCAM-1 in diabetic ApoE−/− mice (real-time PCR); type: in vivo; conditions: 13 weeks
# Description: Four groups of 9 mice deficient in apolipoprotein E (ApoE^−/−, spontaneously developing atheroma plaques in their aortas) were used in this study. At the age of 8 weeks, the mice are made diabetic by 5 intraperitoneal injections of 70 mg/kg of streptozotocin over 5 days. At the ninth week, the animals are divided into four groups: an untreated control group, a group treated with terutroban (compound A) sodium salt (1 mg/kg/day in the food), a group treated with perindopril (compound B) tert-butylamine salt (0.1 mg/kg/day in the drinking water), and a group treated with the association of terutroban (compound A) sodium salt (1 mg/kg/day in the food) and perindopril (compound B) tert-butylamine salt (0.1 mg/kg/day in the drinking water). For the expression of aortic VCAM-1, the mice are treated for 13 weeks and then sacrificed. The aortas and the right-side kidneys are removed, dissected and frozen in liquid nitrogen. The tissues are cryo-ground and total RNA is extracted using the RNeasy® micro kit (Qiagen). […] Expression of aortic VCAM-1 and expression of renal fibronectin are quantified by real-time PCR and normalised with respect to 3 reference genes: β-actin, hypoxanthine-guanine phosphoribosyl transferase (HPRT) and glyceraldehyde phosphate dehydrogenase (GAPDH). […]
# [2] = tested on: CD rats; experiment: Arterial thrombosis in the rat (FeCl3-induced, aorta); type: in vivo
# Description: The thrombosis technique used is that of Tanaka and co-workers (Eur. J. Pharmacol., 2008; 401, 413-18). CD rats (350-375 g) are anaesthetised using pentobarbital 50 mg/kg IP and are placed on a thermostatically controlled blanket. After laparotomy, the aorta is exposed. […] Some animals are treated with terutroban (compound A) in the form of the sodium salt at a dose of 0.1 mg/kg, others with perindopril (compound B) in the form of the tert-butylamine salt at a dose of 1 mg/kg, and others with terutroban in the form of the sodium salt (compound A) at a dose of 0.1 mg/kg and perindopril (compound B) in the form of the tert-butylamine salt at 1 mg/kg.
# [3] = tested on: renal fibronectin; experiment: Expression of renal fibronectin in diabetic ApoE−/− mice (real-time PCR); type: in vivo; conditions: 6 weeks
# Description: Four groups of 9 mice deficient in apolipoprotein E (ApoE^−/−, spontaneously developing atheroma plaques in their aortas) were used in this study. At the age of 8 weeks, the mice are made diabetic by 5 intraperitoneal injections of 70 mg/kg of streptozotocin over 5 days. At the ninth week, the animals are divided into four groups: an untreated control group, a group treated with terutroban (compound A) sodium salt (1 mg/kg/day in the food), a group treated with perindopril (compound B) tert-butylamine salt (0.1 mg/kg/day in the drinking water), and a group treated with the association of terutroban (compound A) sodium salt (1 mg/kg/day in the food) and perindopril (compound B) tert-butylamine salt (0.1 mg/kg/day in the drinking water). For the expression of renal fibronectin, the mice are treated for 6 weeks and then sacrificed after anaesthesia using isoflurane. For the expression of aortic VCAM-1, the mice are treated for 13 weeks and then sacrificed. The aortas and the right-side kidneys are removed, dissected and frozen in liquid nitrogen. […] Expression of aortic VCAM-1 and expression of renal fibronectin are quantified by real-time PCR and normalised with respect to 3 reference genes: β-actin, hypoxanthine-guanine phosphoribosyl transferase (HPRT) and glyceraldehyde phosphate dehydrogenase (GAPDH). […]
# [4] = tested on: CD rats; experiment: Arterial pressure in the anaesthetised rat; type: in vivo; conditions: recorded 1 hour after treatment, controls 131±7 mmHg
# Description: After anaesthesia using pentobarbital (50 mg/kg IP), the animal is placed on a thermostatically controlled blanket. The carotid artery is exposed and a catheter is introduced in order to monitor the arterial pressure with the aid of a Gould sensor connected to AcqKnowledge software. […] Some animals are treated with terutroban (compound A) in the form of the sodium salt at a dose of 0.1 mg/kg, others with perindopril (compound B) in the form of the tert-butylamine salt at a dose of 0.3 mg/kg, and others with terutroban (compound A) in the form of the sodium salt at 0.1 mg/kg and perindopril (compound B) in the form of the tert-butylamine salt at 0.3 mg/kg.
# [5] = tested on: human E-selectin promoter; experiment: E-selectin promoter activity (luciferase reporter) in TNF-α-induced HUVEC cells; type: cell-based; conditions: for Activity in cpm %/Control MEAN ± SDM: TNF-α-induced (100 U/ml); for effect on expression of the E-selectin gene: compound alone, at the concentrations tested (up to 100 μM), TNF-α
# Description: The study is carried out on human endothelial cells HUVEC (Human Umbilical Vein Endothelial Cells, Clonetics Co). The cells are cultured in an EBM2 medium (Endothelial Basal Medium, Clonetics Co) supplemented with 2% FCS (Fœtal Calf Serum) and EGM2 (Endothelial Growth Medium, Clonetics Co).
# An 850 bp fragment, corresponding to the human E-selectin promoter, extending from the nucleotides at positions −800 to +50 (accession no. M64485; Tamaru et al., E-selectin gene expression is induced synergistically with the coexistence of activated classic protein kinase C and signals elicited by interleukin-1β but not tumor necrosis factor-α; 1999, J. Biol. Chem, 274, 3753-3763), was amplified by PCR and sub-cloned. In a final reaction volume of 100 μl, 5 units of native Pyrococcus furiosus (Pfu) DNA polymerase (Stratagene) were placed in the presence of 1 μg of human genomic DNA (Clontech), 200 μM of dNTP (deoxynucleotide triphosphate) (Clontech) and 200 ng of primers in a medium containing the buffer specific to the enzyme. The set of primers used is as follows: […]
# The PGL3/E-selectin plasmid is transfected into HUVEC cells before the fourth passage. Transfection is carried out in plates having cells at 50% confluence, depositing Lipofectin® (Invitrogen) and 3 μg of PGL3/E-selectin plasmid in each of the wells. The Lipofectin® (6 μg/ml) is previously activated for 30 minutes in an OPTI-MEM medium (GIBCO™) and then brought into contact for 15 minutes with the plasmids previously diluted with the medium. The cells are incubated for 4 hours at 37° C. in an atmosphere containing 5% CO2 and […]. The transfection medium is withdrawn and replaced overnight by an enriched culture medium in order to stabilise the cells.
# Expression of the reporter genes is induced over 4 hours in an M199 medium without serum (GIBCO™). The cells are scratched and lysed in a lysis buffer (Dual-Luciferase® kit, Promega) and then held at −20° C.
# The induction phase is 4 hours for the HUVEC cells in the presence of 100 U/ml of Tumour Necrosis Factor-α (TNF-α). During that induction phase, there are added different concentrations of, on the one hand: • perindoprilate (0 to 100 µM), terutroban sodium salt (0 to 100 μM), or terutroban sodium salt (30 μM)+different concentrations of perindoprilate (10, 30 and 100 μM) (Table 1) and, on the other hand: • ramiprilate (0 to 100 μM), terutroban sodium salt (0 to 100 μM), or terutroban sodium salt (10 μM)+different concentrations of ramiprilate (30 and 100 μM) (Table 2).
# The E-selectin promoter activity is determined by quantification of the luciferase activity produced (Dual-Luciferase® kit, Promega). A solution of luciferin, the substrate of the firefly luciferase, is added to each well. […] The plate is incubated for 10 minutes in the dark because the luciferase activity is light-sensitive, and then a luminometer reading is started in order to quantify the photons emitted (Wallac, Perkin Elmer), the result obtained being the average cpm (counts per minute) over a period of 5 seconds.
# (§1) The activity of the E-selectin promoter is measured under control conditions and in the presence of products in the induced state.
# as §1
# [6] = tested on: VCAM-1; conditions: diabetic atheromatous Apo E−/− mice; cited from earlier work
# [7] = 0.1 mg/kg/day in the drinking water
Structure (SMILES),"residual expression of the aortic VCAM-1 gene versus 100% without treatment [1, 7] [%]","weight of clot ([2]; 1 mg/kg, controls 15.6±0.7 mg) [mg]","expression of the renal fibronectin gene versus 100% without treatment [3, 7] [%]",arterial pressure ([4]; 0.3 mg/kg) [mmHg],Activity in cpm %/Control MEAN ± SDM ([5]; compound alone 10 μM) [%],Activity in cpm %/Control MEAN ± SDM ([5]; compound alone 30 μM) [%],Activity in cpm %/Control MEAN ± SDM ([5]; compound alone 100 μM) [%],effect on expression of the E-selectin gene [5],residual expression of the aortic VCAM-1 gene versus 100% without treatment ([1]; 1 mg/kg/day in the food) [%],"weight of clot ([2]; 0.1 mg/kg, controls 17.1±1.3 mg) [mg]",expression of the renal fibronectin gene versus 100% without treatment ([3]; 1 mg/kg/day in the food) [%],arterial pressure ([4]; 0.1 mg/kg) [mmHg],endothelial expression of the adhesion molecule VCAM-1 [6]
CCC[C@H](N[C@@H](C)C(=O)N1[C@H](C(=O)O)C[C@@H]2CCCC[C@@H]21)C(=O)OCC [perindopril],76±21,15.2 ± 1.1,86±9.9,120±9,–,–,–,–,–,–,–,–,–
"CCC[C@H](N[C@@H](C)C(=O)N1[C@H](C(=O)O)C[C@@H]2CCCC[C@@H]21)C(=O)O [Compound B, active metabolite, perindoprilate]",–,–,–,–,99.5 ± 7.8,100.3 ± 9.2,82.8 ± 11.5,no effect,–,–,–,–,–
"Cc1ccc2c(c1CCC(=O)O)CC[C@@H](NS(=O)(=O)c1ccc(Cl)cc1)C2 [Compound A, sodium salt, 3-[(6R)-6-[[(4-chlorophenyl)sulphonyl]amino]-2-methyl-5,6,7,8-tetrahydronaphth-1-yl]propanoic acid]",–,–,–,–,105.8 ± 7.9,99.5 ± 9.1,88.8 ± 8.9,no effect,88±22,16.8 ± 1.3,69±16,126±7,significantly reduced
"C[C@H](N[C@@H](CCc1ccccc1)C(=O)O)C(=O)N1[C@H](C(=O)O)C[C@@H]2CCC[C@@H]21 [Compound C, active metabolite, ramiprilate]",–,–,–,–,–,111.1 ± 17.2,114.6 ± 38.9,no effect,–,–,–,–,–

# From patent publication US20090075976A1, “Association between an anti-atherothrombotic and an angiotensin-converting enzyme inhibitor” (LES LABORATOIRES SERVIER, priority 2007, published 2009)
